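Assay format: 96-well plates, 48-hour exposure. At the GI50, growth is halved.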 Activity calls are given as the source filed them. No stated cut-off is given here; in the data, active = GI50 up to about 1.1 µM and inactive = higher.
Experiments:
Assay in all cases: DTP human tumour cell line panel, 48 h
HT-29 = system: HT-29
ACHN = system: ACHN
NCI/ADR-RES = system: NCI/ADR-RES
UACC-257 = system: UACC-257
NCI-H522 = system: NCI-H522
HCT-15 = system: HCT-15
OVCAR-4 = system: OVCAR-4
OVCAR-8 = system: OVCAR-8
KM12 = system: KM12
SNB-19 = system: SNB-19
LOX IMVI = system: LOX IMVI
M14 = system: M14
UACC-62 = system: UACC-62
CCRF-CEM = system: CCRF-CEM
NCI-H23 = system: NCI-H23
T47D = system: T47D
DU-145 = system: DU-145
HCC 2998 = system: HCC 2998

## COc1ccc(C)cc1N1C(=O)C2ON(Cc3ccc(CC(N)=O)cc3)C(c3c4ccccc4c(Cl)c4ccccc34)C2C1=O (stereo not given)
HT-29
  GI50: 20.3 µM (inactive)
ACHN
  GI50: 25.4 µM (inactive)
NCI/ADR-RES
  GI50: 26.1 µM (inactive)
UACC-257
  GI50: 15 µM (inactive)
NCI-H522
  GI50: 32.1 µM (inactive)
HCT-15
  GI50: 22.4 µM
OVCAR-4
  GI50: 24.3 µM (inactive)
OVCAR-8
  GI50: 27.6 µM (inactive)
KM12
  GI50: 14 µM (inactive)
SNB-19
  GI50: 32.1 µM (inactive)
LOX IMVI
  GI50: 22.8 µM (inactive)
M14
  GI50: 19.3 µM (inactive)
UACC-62
  GI50: 19.7 µM (inactive)
CCRF-CEM
  GI50: 21.5 µM (inactive)
NCI-H23
  GI50: 29.3 µM (inactive)
T47D
  GI50: 27.4 µM (inactive)
DU-145
  GI50: 22.6 µM (inactive)

## C/C=C/[C@H]1O[C@@](OC)([C@@H](C)[C@H](O)[C@H](C)[C@H]2OC(=O)/C(OC)=C/C(C)=C/[C@@H](C)[C@@H](O)[C@@H](C)[C@@H](O)[C@H](C)C/C(C)=C/C=C/[C@@H]2OC)CC(OC2CC(O)C(OC(N)=O)C(C)O2)[C@@H]1C (stereo not given in full)
HT-29
  GI50: < 0.01 µM (active)
ACHN
  GI50: < 0.01 µM (active)
NCI/ADR-RES
  GI50: 0.0953 µM (active)
UACC-257
  GI50: < 0.01 µM (active)
NCI-H522
  GI50: < 0.01 µM (active)
HCT-15
  GI50: < 0.01 µM
OVCAR-8
  GI50: < 0.01 µM (active)
KM12
  GI50: < 0.01 µM (active)
SNB-19
  GI50: 2.9 µM (inactive)
LOX IMVI
  GI50: < 0.01 µM (active)
M14
  GI50: < 0.01 µM (active)
UACC-62
  GI50: < 0.01 µM (active)
CCRF-CEM
  GI50: < 0.01 µM (active)
NCI-H23
  GI50: 1.99 µM (inactive)
T47D
  GI50: < 0.01 µM (active)
HCC 2998
  GI50: < 0.01 µM (active)

## CC(=O)OCCn1cnc2c(NCC=C(C)C)ncnc21
HT-29
  GI50: > 100 µM (inactive)
ACHN
  GI50: > 100 µM (inactive)
NCI/ADR-RES
  GI50: > 100 µM (inactive)
UACC-257
  GI50: > 100 µM (inactive)
NCI-H522
  GI50: > 100 µM (inactive)
OVCAR-4
  GI50: > 100 µM (inactive)
OVCAR-8
  GI50: > 100 µM (inactive)
KM12
  GI50: > 100 µM (inactive)
SNB-19
  GI50: > 100 µM (inactive)
LOX IMVI
  GI50: > 100 µM (inactive)
M14
  GI50: > 100 µM (inactive)
CCRF-CEM
  GI50: > 100 µM (inactive)
NCI-H23
  GI50: > 100 µM (inactive)
T47D
  GI50: > 100 µM (inactive)
DU-145
  GI50: > 100 µM (inactive)

## C/C(=N\n1c(Cc2ccccc2)n[nH]c1=O)c1ccc([N+](=O)[O-])cc1
HT-29
  GI50: > 100 µM (inactive)
NCI/ADR-RES
  GI50: > 100 µM (inactive)
UACC-257
  GI50: > 100 µM (inactive)
NCI-H522
  GI50: > 100 µM (inactive)
HCT-15
  GI50: > 100 µM
OVCAR-4
  GI50: > 100 µM (inactive)
OVCAR-8
  GI50: 69.7 µM (inactive)
KM12
  GI50: > 100 µM (inactive)
SNB-19
  GI50: > 100 µM (inactive)
LOX IMVI
  GI50: > 100 µM (inactive)
M14
  GI50: > 100 µM (inactive)
UACC-62
  GI50: > 100 µM (inactive)
NCI-H23
  GI50: > 100 µM (inactive)
T47D
  GI50: 94 µM (inactive)
DU-145
  GI50: > 100 µM (inactive)

## CN(CCN(C)C(=S)NN)C(=S)NN
HT-29
  GI50: > 100 µM (inactive)
ACHN
  GI50: > 100 µM (inactive)
UACC-257
  GI50: > 100 µM (inactive)
NCI-H522
  GI50: > 100 µM (inactive)
OVCAR-4
  GI50: > 100 µM (inactive)
KM12
  GI50: > 100 µM (inactive)
SNB-19
  GI50: > 100 µM (inactive)
LOX IMVI
  GI50: > 100 µM (inactive)
M14
  GI50: > 100 µM (inactive)
UACC-62
  GI50: > 100 µM (inactive)
CCRF-CEM
  GI50: > 100 µM (inactive)
NCI-H23
  GI50: > 100 µM (inactive)
T47D
  GI50: > 100 µM (inactive)
HCC 2998
  GI50: > 100 µM (inactive)
DU-145
  GI50: > 100 µM (inactive)

## Cc1cn(CCCCC2=NCCCN2)c(=O)[nH]c1=O
ACHN
  GI50: > 25.2 µM (inactive)
NCI/ADR-RES
  GI50: > 34.8 µM (inactive)
UACC-257
  GI50: > 26.2 µM (inactive)
NCI-H522
  GI50: > 30.8 µM (inactive)
HCT-15
  GI50: > 32.2 µM
OVCAR-4
  GI50: > 29.5 µM (inactive)
KM12
  GI50: > 31.3 µM (inactive)
SNB-19
  GI50: > 52.8 µM (inactive)
LOX IMVI
  GI50: > 25.6 µM (inactive)
M14
  GI50: > 25.2 µM (inactive)
UACC-62
  GI50: > 42.2 µM (inactive)
NCI-H23
  GI50: > 31.2 µM (inactive)
HCC 2998
  GI50: > 26.3 µM (inactive)
DU-145
  GI50: > 26.6 µM (inactive)

## O=S(=O)(O)c1ccc2c(/N=N/c3ccccc3Cl)c(O)ccc2c1
HT-29
  GI50: > 100 µM (inactive)
ACHN
  GI50: > 100 µM (inactive)
NCI/ADR-RES
  GI50: > 100 µM (inactive)
UACC-257
  GI50: > 100 µM (inactive)
NCI-H522
  GI50: > 100 µM (inactive)
HCT-15
  GI50: > 100 µM
OVCAR-4
  GI50: > 100 µM (inactive)
OVCAR-8
  GI50: > 100 µM (inactive)
KM12
  GI50: > 100 µM (inactive)
SNB-19
  GI50: > 100 µM (inactive)
LOX IMVI
  GI50: > 100 µM (inactive)
M14
  GI50: > 100 µM (inactive)
UACC-62
  GI50: > 100 µM (inactive)
CCRF-CEM
  GI50: > 100 µM (inactive)
NCI-H23
  GI50: > 100 µM (inactive)
T47D
  GI50: > 100 µM (inactive)
DU-145
  GI50: > 100 µM (inactive)

## CC(=O)Oc1c2oc3cc(O)c(O)cc3c2c(OC(C)=O)c2oc3cc(O)c(O)cc3c12 [POLYOZELLIN]
HT-29
  GI50: 26.4 µM (inactive)
ACHN
  GI50: 20.8 µM (inactive)
NCI/ADR-RES
  GI50: 35.3 µM (inactive)
UACC-257
  GI50: 19.4 µM (inactive)
NCI-H522
  GI50: 10.3 µM (inactive)
HCT-15
  GI50: 25.2 µM
OVCAR-4
  GI50: 19.8 µM (inactive)
OVCAR-8
  GI50: 20.2 µM (inactive)
KM12
  GI50: 20.3 µM (inactive)
SNB-19
  GI50: 23.7 µM (inactive)
LOX IMVI
  GI50: 24.5 µM (inactive)
M14
  GI50: 23.4 µM (inactive)
UACC-62
  GI50: 16.6 µM (inactive)
CCRF-CEM
  GI50: 2.57 µM (inactive)
NCI-H23
  GI50: 2.39 µM (inactive)
HCC 2998
  GI50: 16.9 µM (inactive)

Source: ChEMBL document CHEMBL1201862, “PubChem BioAssay data set” (2004)
